Read-outs that look alike come from different tables or passages of the source.

What all share (experiment): cells
One assay concerns A549. In kind it is cell-based, human. The conditions noted are these: read-out: GI50 A549 lung (+p53).
In a further assay the test system is H1299. In kind it is cell-based, human. The conditions noted are these: read-out: GI50 H1299 lung (−p53).
A further assay has as its system NCI-H460. In kind it is cell-based, human. The conditions noted are these: read-out: GI50 NCI-H460 lung.
In the next assay the test system is HCT-15. In kind it is cell-based, human. The conditions noted are these: read-out: GI50 HCT-15 colorectal.
The subject of another assay is HT29. In kind it is cell-based, human. The conditions noted are these: read-out: GI50 HT29 colorectal.
Another assay has as its system Hep3b. In kind it is cell-based, human. The conditions noted are these: read-out: GI50 Hep3b liver.
A further assay concerns MCF7. In kind it is cell-based, human. The conditions noted are these: read-out: GI50 MCF7 breast.
For a further assay, the system named is DU-145. In kind it is cell-based, human. The conditions noted are these: read-out: GI50 DU-145 prostate.
A further assay concerns SF-268. In kind it is cell-based, human. The conditions noted are these: read-out: GI50 SF-268 CNS.
For a further assay, the system named is SKOV3. In kind it is cell-based, human. The conditions noted are these: read-out: GI50 SKOV3 ovary.
Assay [1] relates to ten-member panel of human carcinomas. In kind it is cell-based.

Regarding `CON(CCCCc1ccc(N(CCCl)CCCl)cc1)C1OCC(O)C(O)C1O` (mixture of isomers) [Compound 53, N-Methoxy-4-(4-N′,N′-bis(2-chloroethyl)amino)phenylbutylamino-D-riboside], the GI50 in the assay with A549 came to 2.8 ± 0.1 µM; with H1299, 3.6 ± 0.3 µM; in the assay with NCI-H460, 5.9 ± 0.7 µM; with HCT-15 it was 1.8 ± 0.1 µM; with HT29, 2.3 ± 0.1 µM; in the assay with Hep3b, 2.4 ± 0.1 µM. For the same molecule, the GI50 with MCF7 was 1.1 ± 0.1 µM; in the assay on DU-145, 3.8 ± 0.6 µM; in the assay with SF-268 it was 1.9 ± 0.1 µM; in the assay on SKOV3 it was 2 ± 0.1 µM; in assay [1] (read-out: GI50), 1.8 to 5.9 µM.
With `O=C(O)CCCc1ccc(N(CCCl)CCCl)cc1` [Compound 1, Chlorambucil, reference compound], the GI50 worked out at 6.1 ± 0.3 µM with A549 (Homo sapiens, A549, 168 h); 4.9 ± 0.2 µM with H1299 (Homo sapiens, NCI-H1299, 168 h); 11 ± 0.9 µM in the assay on NCI-H460 (Homo sapiens, NCI-H460, 168 h); 8.1 ± 0.1 µM with HCT-15 (Homo sapiens, HCT-15, 168 h); 5 ± 0.3 µM with HT29 (Homo sapiens, HT-29, 168 h); 5.1 ± 0.2 µM with Hep3b (Homo sapiens, Hep3B, 168 h). The GI50 was 8.2 ± 0.2 µM in the assay on MCF7 (Homo sapiens, MCF7, 168 h); 9.4 ± 0.2 µM in the assay with DU-145 (Homo sapiens, DU-145, 168 h); 5.4 ± 0.1 µM in the assay with SF-268 (Homo sapiens, SF-268, 168 h); 5.5 ± 0.4 µM in the assay with SKOV3 (Homo sapiens, SK-OV-3, 168 h); 5 to 11 µM in assay [1] (Homo sapiens, read-out: GI50 values).
With `O=C1O[C@@H]2[C@@H](O)[C@H](N(O)CCCCc3ccc(N(CCCl)CCCl)cc3)O[C@@H]2[C@@H]1O` [Compound 67, N-Hydroxy-4-(4-N′,N′-bis(2-chloroethyl)amino)phenylbutylamino-D-glucurono-6,3-lactonide], the 50% growth inhibitory concentration (GI50) is 10.4 ± 0.6 µM with A549; 3.8 ± 0.1 µM with H1299; 13.1 ± 0.4 µM in the assay with NCI-H460; 8.5 ± 0.5 µM in the assay on HCT-15; 9.9 ± 0.2 µM in the assay with HT29; 7.2 ± 0.3 µM in the assay on Hep3b. For the same molecule, the GI50 was determined as 4.1 ± 0.2 µM with MCF7, 14.8 ± 0.8 µM with DU-145, 3.1 ± 0.1 µM with SF-268 and 10.1 ± 0.4 µM in the assay with SKOV3.
For the molecule `O[C@@H]1[C@H](O)COC(N(O)CCCCc2ccc(N(CCCl)CCCl)cc2)[C@@H]1O` (stereo partly drawn) [Compound 68, N-Hydroxy-4-(4-N′,N′-bis(2-chloroethyl)amino)phenylbutylamino-D-riboside], the GI50 in the assay with A549 is 0.84 ± 0.05 µM; in the assay on H1299, 1.6 ± 0.2 µM; with NCI-H460, 1.04 ± 0.06 µM; in the assay on HCT-15 it was 0.87 ± 0.05 µM; with HT29 it was 0.9 ± 0.05 µM; in the assay on Hep3b, above 5 µM. In addition, the GI50 in the assay on MCF7 is 3.2 ± 0.2 µM; in the assay on DU-145, above 5 µM; with SF-268, 1.5 ± 0.1 µM; with SKOV3, 0.89 ± 0.04 µM.
For the molecule `C[C@H]1O[C@@H](NNC(=O)CCCc2ccc(N(CCCl)CCCl)cc2)[C@H](O)[C@@H](O)[C@H]1O` [Compound 72, 4-(4-N′,N′-bis(2-chloroethyl)amino)phenylbutylhydrazido-β-D-fucoside], the GI50 in the assay on A549 was 28 ± 1 µM; in the assay on H1299, 8.7 ± 0.3 µM; in the assay on NCI-H460 it was 51 ± 2 µM; in the assay on HCT-15, above 100 µM; in the assay with HT29 it was 16.7 ± 0.7 µM; in the assay with Hep3b, 11 ± 0.3 µM. Besides, the concentration for 50% growth inhibition (GI50) with MCF7 came to 6.3 ± 0.2 µM; in the assay on DU-145, 24 ± 2 µM; with SF-268, 5.8 ± 0.1 µM; with SKOV3 it was 22 ± 1 µM.
On to `O=C(CCCc1ccc(N(CCCl)CCCl)cc1)NN[C@@H]1O[C@H]2[C@H](OC(=O)[C@H]2O)[C@H]1O` [Compound 73, 4-(4-N′,N′-bis(2-chloroethyl)amino)phenylbutylhydrazido-D-glucurono-6,3-lactonide], for which the GI50 in the assay on A549 was 31 ± 2 µM; with H1299, 12.9 ± 0.7 µM; in the assay on NCI-H460, 43 ± 4 µM; in the assay with HCT-15, above 100 µM; with HT29, 30 ± 2 µM; with Hep3b, 17.7 ± 0.4 µM. Moreover, the GI50 worked out at 9.9 ± 0.5 µM in the assay with MCF7, 23 ± 2 µM in the assay on DU-145, 8.9 ± 0.4 µM in the assay with SF-268 and 37 ± 2 µM with SKOV3.
For the molecule `O=C(CCCc1ccc(N(CCCl)CCCl)cc1)NNC1OC[C@@H](O)[C@H](O)[C@H]1O` (stereo partly drawn) [Compound 75, 4-(4-N′,N′-bis(2-chloroethyl)amino)phenylbutylhydrazido-D-xyloside], the 50% growth inhibitory concentration (GI50) in the assay with A549 was 14.8 ± 0.7 µM; in the assay on H1299, 3.9 ± 0.2 µM; in the assay on NCI-H460 it was 26 ± 3 µM; with HCT-15, above 100 µM; in the assay with HT29, 7.2 ± 0.1 µM; in the assay on Hep3b, 5.5 ± 0.4 µM. Further, the GI50 was 4.5 ± 0.2 µM in the assay with MCF7, 19 ± 2 µM with DU-145, 2.5 ± 0.1 µM in the assay with SF-268 and 12 ± 0.5 µM in the assay on SKOV3.
Consider “N-Hydroxy-4-(4-N′,N′-bis(2-chloroethyl)amino)phenylbutylamino-D-threoside nitrone [Compound 70]”, for which the GI50 in the assay with A549 amounted to 3 ± 0.2 µM; in the assay on H1299 it was 1.07 ± 0.08 µM; in the assay with NCI-H460, 3.8 ± 0.1 µM; in the assay with HCT-15 it was 2.5 ± 0.1 µM; in the assay with HT29, 3.2 ± 0.1 µM; in the assay on Hep3b, 1.7 ± 0.1 µM. The GI50 in the assay on MCF7 was found to be 2 ± 0.1 µM; with DU-145, 3.6 ± 0.2 µM; with SF-268, 1.2 ± 0.1 µM; with SKOV3, 2.6 ± 0.1 µM.

One may read the GI50 as the concentration giving 50% growth inhibition.

(Values after patent publication US8552176B2 (priority 2010, dated 2013).)
